Drawing on ChEMBL document CHEMBL3301562, “MMV Box screening against Plasmodium falciparum protein kinases and aminoacyl tRNA synthetases”, this text covers IC50 for twelve molecules.

Broadly, the IC50 is the concentration needed to halve the response being measured.

What all share (type): functional
For test [1], the target named is T1, Cdk-related protein kinase 6 (Plasmodium falciparum, UniProt O77239).
T1 sequence (O77239 whole entry): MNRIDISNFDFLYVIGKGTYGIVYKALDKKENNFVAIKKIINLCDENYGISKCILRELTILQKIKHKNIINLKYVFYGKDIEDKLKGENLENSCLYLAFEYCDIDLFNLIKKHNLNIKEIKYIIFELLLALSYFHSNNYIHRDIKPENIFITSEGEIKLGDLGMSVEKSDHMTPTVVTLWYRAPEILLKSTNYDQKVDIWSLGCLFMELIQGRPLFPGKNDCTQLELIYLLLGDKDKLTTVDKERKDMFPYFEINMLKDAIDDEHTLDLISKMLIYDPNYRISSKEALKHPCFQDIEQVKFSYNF
The test can be described thus: Final concentrations were 1.5 uM ATP, 5 mM MnCl2, and 15 ug/ml PK6 in a buffer of 100 mM Tris-HCl (pH 7.5). 50 ug/mL MBP was provided as the substrate; 10 uM staurosporine was used as a control inhibitor. Incubation time was 3 hours and 40 minutes.The catalytic activity of each kinase was considered proportional to ATP consumed, as determined from measurements of residual [ATP] with the luciferase-based reagent Kinase-Glo (Promega) following incubation. Luminescence (proportional to residual [ATP]) was measured on the plate readers FLx800 (BioTek Instruments, Winooski, VT, USA) and MicroBeta2. In general terms: Kinase-Glo reads ATP consumption through a luciferase reaction.

The target of test [2] is T2, Putative uncharacterized protein pk7 (Plasmodium falciparum, UniProt O96214).
T2 sequence (O96214 whole entry): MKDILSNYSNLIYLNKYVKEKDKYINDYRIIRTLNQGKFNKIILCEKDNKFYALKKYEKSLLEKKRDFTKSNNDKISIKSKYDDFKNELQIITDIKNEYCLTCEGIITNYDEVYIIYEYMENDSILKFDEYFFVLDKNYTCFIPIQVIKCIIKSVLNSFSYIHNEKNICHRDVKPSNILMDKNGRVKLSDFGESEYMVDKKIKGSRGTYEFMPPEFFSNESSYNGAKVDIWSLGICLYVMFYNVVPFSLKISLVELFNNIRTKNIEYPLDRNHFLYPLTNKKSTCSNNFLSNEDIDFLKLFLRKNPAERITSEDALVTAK
Description: Final concentrations were 1 uM ATP, 2 mM DTT, 20 mM MgCl2, 2 mM MnCl2, 0.01% BSA, and 6 ug/ml PK7, in a buffer of 20 mM Tris-HCl (pH 7.5). The enzyme itself was the only substrate present (since autophosphorylation occurs); 100 uM 1NA-PP1 was used as a control inhibitor. Incubation time was 3 hours.

The target in test [3] is T3, Mitogen-activated protein kinase (Plasmodium falciparum, UniProt Q25917).
T3 sequence (Q25917 whole entry): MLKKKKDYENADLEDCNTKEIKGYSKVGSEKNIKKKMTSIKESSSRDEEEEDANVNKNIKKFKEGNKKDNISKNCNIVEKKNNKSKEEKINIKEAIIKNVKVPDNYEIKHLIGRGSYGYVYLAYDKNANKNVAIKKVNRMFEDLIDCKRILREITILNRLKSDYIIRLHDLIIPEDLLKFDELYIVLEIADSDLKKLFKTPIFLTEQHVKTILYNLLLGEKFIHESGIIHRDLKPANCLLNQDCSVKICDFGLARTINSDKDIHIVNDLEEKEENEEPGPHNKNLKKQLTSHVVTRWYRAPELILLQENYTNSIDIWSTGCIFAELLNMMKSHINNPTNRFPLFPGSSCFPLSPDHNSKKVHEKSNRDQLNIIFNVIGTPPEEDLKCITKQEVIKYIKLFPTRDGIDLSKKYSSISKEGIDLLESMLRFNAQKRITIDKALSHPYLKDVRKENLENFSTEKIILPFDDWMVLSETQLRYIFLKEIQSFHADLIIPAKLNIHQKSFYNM
The test can be described thus: Final concentrations were 1 uM ATP, 0.5 mM DTT, 1 mM MgCl2, 0.5 mg/mL BSA, and 10 ug/ml MAP2 in a buffer of 50 mM HEPES (pH 7.0). 0.5 mg/mL histone III-S served as the substrate (13); 100 uM AMP-PNP, an ATP analog, was used as a control inhibitor. Incubation time was 4 hours.

In test [4] the target is Calcium-dependent protein kinase 1 (Plasmodium falciparum, UniProt P62344). Description: MMV: CDPK1 Protein kinase inhibition assay using recombinant PfCDPK1, syntide 2 peptide substrate, ATP and KinaseGlo to measure % inhibition at 1 uM MMV box compound.
Chain of Calcium-dependent protein kinase 1 (P62344 whole entry): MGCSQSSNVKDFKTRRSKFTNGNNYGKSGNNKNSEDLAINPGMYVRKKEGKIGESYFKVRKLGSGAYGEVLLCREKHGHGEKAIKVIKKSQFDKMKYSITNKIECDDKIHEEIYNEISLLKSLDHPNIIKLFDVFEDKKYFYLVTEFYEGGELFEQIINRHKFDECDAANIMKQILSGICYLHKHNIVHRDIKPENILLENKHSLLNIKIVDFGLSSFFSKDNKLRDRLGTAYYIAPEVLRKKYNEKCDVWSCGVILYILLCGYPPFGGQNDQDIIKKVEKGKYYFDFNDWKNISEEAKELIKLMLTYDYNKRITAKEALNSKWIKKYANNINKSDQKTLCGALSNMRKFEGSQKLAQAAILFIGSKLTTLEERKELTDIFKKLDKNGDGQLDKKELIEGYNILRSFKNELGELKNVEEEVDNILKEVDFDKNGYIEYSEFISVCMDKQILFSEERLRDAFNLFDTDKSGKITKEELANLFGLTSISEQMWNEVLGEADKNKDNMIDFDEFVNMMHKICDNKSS
Test [5] deals with T4, Calcium-dependent protein kinase 4 (Plasmodium falciparum (isolate 3D7), UniProt Q8IBS5).
T4 sequence (Q8IBS5 whole entry): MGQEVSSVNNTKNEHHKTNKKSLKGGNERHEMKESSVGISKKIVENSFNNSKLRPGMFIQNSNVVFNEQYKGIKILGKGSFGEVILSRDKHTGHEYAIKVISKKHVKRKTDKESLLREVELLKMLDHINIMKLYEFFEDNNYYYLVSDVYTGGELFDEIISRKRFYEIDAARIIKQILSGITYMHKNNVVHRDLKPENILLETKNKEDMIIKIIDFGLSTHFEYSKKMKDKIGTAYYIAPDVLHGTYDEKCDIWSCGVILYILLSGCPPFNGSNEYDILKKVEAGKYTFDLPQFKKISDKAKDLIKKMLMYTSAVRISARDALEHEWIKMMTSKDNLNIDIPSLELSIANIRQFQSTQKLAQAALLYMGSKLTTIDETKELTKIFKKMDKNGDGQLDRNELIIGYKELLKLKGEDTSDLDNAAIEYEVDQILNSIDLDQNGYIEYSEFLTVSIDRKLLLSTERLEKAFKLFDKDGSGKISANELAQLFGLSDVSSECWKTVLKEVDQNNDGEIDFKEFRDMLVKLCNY
The test can be described thus: MMV: CDPK4 Protein kinase inhibition assay using recombinant PfCDPK4, syntide2 peptide substrate, ATP and KinaseGlo to measure % inhibition at 1 uM MMV box compound.

A further test concerns the target T5, Proline--tRNA ligase (Plasmodium falciparum (isolate 3D7), UniProt Q8I5R7).
T5 sequence (Q8I5R7 whole entry): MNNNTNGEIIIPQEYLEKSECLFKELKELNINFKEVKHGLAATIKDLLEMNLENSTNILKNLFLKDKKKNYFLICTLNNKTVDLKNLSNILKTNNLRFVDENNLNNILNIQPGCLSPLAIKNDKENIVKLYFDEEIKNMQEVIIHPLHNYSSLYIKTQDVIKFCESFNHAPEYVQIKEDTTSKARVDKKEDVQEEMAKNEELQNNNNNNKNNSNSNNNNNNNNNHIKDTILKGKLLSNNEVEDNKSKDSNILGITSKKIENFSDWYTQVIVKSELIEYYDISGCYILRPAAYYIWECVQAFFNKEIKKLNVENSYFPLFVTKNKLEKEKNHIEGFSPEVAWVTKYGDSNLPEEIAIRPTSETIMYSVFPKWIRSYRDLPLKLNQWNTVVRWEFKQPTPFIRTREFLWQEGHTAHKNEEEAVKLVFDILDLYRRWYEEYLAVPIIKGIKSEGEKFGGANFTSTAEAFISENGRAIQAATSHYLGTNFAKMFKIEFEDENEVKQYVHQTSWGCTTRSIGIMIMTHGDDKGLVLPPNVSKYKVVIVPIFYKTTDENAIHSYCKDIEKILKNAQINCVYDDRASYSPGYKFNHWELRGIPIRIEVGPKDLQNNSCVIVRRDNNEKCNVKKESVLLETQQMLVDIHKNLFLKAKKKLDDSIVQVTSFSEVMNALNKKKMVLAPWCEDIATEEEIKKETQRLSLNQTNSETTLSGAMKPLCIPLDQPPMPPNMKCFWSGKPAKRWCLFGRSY
Description: MMV: ProRS recombinant Plasmodium falciparum Prolyl-tRNA-synthetase, assay with yeast tRNA, ATP, and proline and 3 uM MMV malaria box compound, assay read out with kinase glo as % inhibition.

The target in another test is Lysine--tRNA ligase (Plasmodium falciparum (isolate 3D7), UniProt Q8IDJ8). Description: MMV: KRS recombinant Plasmodium falciparum Lysyl-tRNA-synthetase, assay with yeast tRNA, ATP, and lysine and 3 uM MMV malaria box compound, assay read out with kinase glo as % inhibition.
Chain of Lysine--tRNA ligase (Q8IDJ8 whole entry): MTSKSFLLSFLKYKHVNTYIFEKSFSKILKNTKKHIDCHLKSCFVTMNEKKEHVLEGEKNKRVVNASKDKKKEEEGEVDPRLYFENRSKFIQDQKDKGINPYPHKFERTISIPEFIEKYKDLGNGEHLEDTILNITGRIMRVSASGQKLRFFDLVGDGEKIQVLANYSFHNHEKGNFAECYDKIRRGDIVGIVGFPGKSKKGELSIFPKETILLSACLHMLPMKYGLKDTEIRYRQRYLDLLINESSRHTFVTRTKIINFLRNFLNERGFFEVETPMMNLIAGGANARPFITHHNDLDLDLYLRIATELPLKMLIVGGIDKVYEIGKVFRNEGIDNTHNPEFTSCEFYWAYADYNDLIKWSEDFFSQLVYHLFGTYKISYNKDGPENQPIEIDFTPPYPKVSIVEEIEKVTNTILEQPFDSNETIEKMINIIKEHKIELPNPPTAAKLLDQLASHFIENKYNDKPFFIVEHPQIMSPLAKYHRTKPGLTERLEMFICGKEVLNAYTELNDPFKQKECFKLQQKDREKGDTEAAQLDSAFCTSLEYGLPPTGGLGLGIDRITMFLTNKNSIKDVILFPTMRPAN

Some results are limits rather than exact numbers.

As for `OC(CNCC1CCCO1)Cn1c2ccc(Cl)cc2c2cc(Cl)ccc21` (centres undefined), the IC50 in test [1] is above 1000 nM; in test [2], above 1000 nM; in test [3], above 1000 nM; in test [4], above 1000 nM; in test [5] it was above 1000 nM; at Proline--tRNA ligase, above 2500 nM. For the same molecule, the IC50 on Lysine--tRNA ligase is above 2500 nM.
Take `COc1ccc2nc(C)cc(Nc3ccccc3O)c2c1`: the IC50 is above 1000 nM in test [1]; above 1000 nM in test [2]; above 1000 nM in test [3]; above 1000 nM in test [4]; above 1000 nM in test [5]; above 2500 nM on Proline--tRNA ligase. For the same molecule, on Lysine--tRNA ligase, the half-inhibitory concentration (IC50) is above 2500 nM.
Take `CCn1nc(-c2ccc(C(=O)OC)cc2)nc2c(=O)n(C)c(=O)nc1-2`: the IC50 in test [1] was above 1000 nM; in test [2] it was above 1000 nM; in test [3], above 1000 nM; in test [4], above 1000 nM; in test [5] it was above 1000 nM; at Proline--tRNA ligase it was above 2500 nM. Moreover, the 50% inhibitory concentration (IC50) at Lysine--tRNA ligase is above 2500 nM.
Take `CC(C)(C)CC(C)(C)NCC(O)COc1ccc(Cl)cc1Cl` (centres undefined): the half-maximal inhibitory concentration (IC50) in test [1] was above 1000 nM; in test [2], above 1000 nM; in test [3], above 1000 nM; in test [4], above 1000 nM; in test [5] it was above 1000 nM; at Proline--tRNA ligase, above 2500 nM. Also, the half-inhibitory concentration (IC50) on Lysine--tRNA ligase was above 2500 nM.
Regarding `CCC(O)c1ccc(Br)cc1NC(=O)c1cccc(Cl)c1` (centres undefined), the IC50 in test [1] was above 1000 nM; in test [2], above 1000 nM; in test [3], above 1000 nM; in test [4], above 1000 nM; in test [5], above 1000 nM; on Proline--tRNA ligase, above 2500 nM. Moreover, the IC50 at Lysine--tRNA ligase is above 2500 nM.
Take `O=C(Nc1cccc(-c2nc3ccccc3[nH]2)c1)c1cccc(NC(=O)c2ccco2)c1`: the IC50 in test [1] is above 1000 nM; in test [2] it was above 1000 nM; in test [3] it was above 1000 nM; in test [4], above 1000 nM; in test [5] it was above 1000 nM; on Proline--tRNA ligase it was above 2500 nM. The IC50 at Lysine--tRNA ligase was above 2500 nM.
On to `Cc1cc(NC(=O)c2ccc(-c3ccccc3)cc2)no1`, for which the IC50 is above 1000 nM in test [1]; above 1000 nM in test [2]; above 1000 nM in test [3]; above 1000 nM in test [4]; above 1000 nM in test [5]; above 2500 nM on Proline--tRNA ligase. For the same molecule, the half-inhibitory concentration (IC50) at Lysine--tRNA ligase was above 2500 nM.
With `COc1cc(SC)ccc1C(=O)N1CCCC(C)C1` (centres undefined), the half-inhibitory concentration (IC50) is above 1000 nM in test [1]; above 1000 nM in test [2]; above 1000 nM in test [3]; above 1000 nM in test [4]; above 1000 nM in test [5]; above 2500 nM on Proline--tRNA ligase. For the same molecule, the IC50 at Lysine--tRNA ligase is above 2500 nM.
Take `Cc1ccc(NC(=O)Nc2cccc(Cl)c2)cc1F`: the IC50 was above 1000 nM in test [1]; above 1000 nM in test [2]; above 1000 nM in test [3]; above 1000 nM in test [4]; above 1000 nM in test [5]; above 2500 nM at Proline--tRNA ligase. Moreover, the IC50 on Lysine--tRNA ligase was above 2500 nM.
In the case of `O=c1nc(C=Cc2ccc(Cl)cc2)oc2ccccc12`, the 50% inhibitory concentration (IC50) in test [1] was above 1000 nM; in test [2], above 1000 nM; in test [3], above 1000 nM; in test [4], above 1000 nM; in test [5], above 1000 nM; on Proline--tRNA ligase, above 2500 nM. The IC50 at Lysine--tRNA ligase was above 2500 nM.
Take `O=C(NCc1ccco1)C1CCN(S(=O)(=O)c2ccc(Br)cc2)CC1`: the IC50 is above 1000 nM in test [1]; above 1000 nM in test [2]; above 1000 nM in test [3]; above 1000 nM in test [4]; above 1000 nM in test [5]; above 2500 nM at Proline--tRNA ligase. Moreover, the IC50 on Lysine--tRNA ligase was above 2500 nM.
As to `COc1cc2c(cc1OC)C1=NNC(=O)C1=NC(C)(C)C2`, the 50% inhibitory concentration (IC50) in test [1] was above 1000 nM; in test [2], above 1000 nM; in test [3] it was above 1000 nM; in test [4] it was above 1000 nM; in test [5], above 1000 nM; at Proline--tRNA ligase, above 2500 nM. In addition, the IC50 at Lysine--tRNA ligase is above 2500 nM.
